# Paper PMC5075789, “Orphan GPR110 (ADGRF1) targeted by N-docosahexaenoylethanolamine in development of neurons and cognitive function” (Nature Communications, 2016)
# Experiments:
# [1] = target: T1, hGPR110-HA (human GPR110, ADGRF1) (Homo sapiens, UniProt Q5T601); assay: microscale thermophoresis; conditions: read-out: apparent Kd
# T1 construct: full-length ORF, 910 residues, C-terminal HA tag kept, expressed in HEK293 (CRE-luc2P HEK293 for cAMP); immunopurified with anti-HA for MST; glycosylated, about 130 and 110 kD
# T1 sequence (Q5T601 20-566): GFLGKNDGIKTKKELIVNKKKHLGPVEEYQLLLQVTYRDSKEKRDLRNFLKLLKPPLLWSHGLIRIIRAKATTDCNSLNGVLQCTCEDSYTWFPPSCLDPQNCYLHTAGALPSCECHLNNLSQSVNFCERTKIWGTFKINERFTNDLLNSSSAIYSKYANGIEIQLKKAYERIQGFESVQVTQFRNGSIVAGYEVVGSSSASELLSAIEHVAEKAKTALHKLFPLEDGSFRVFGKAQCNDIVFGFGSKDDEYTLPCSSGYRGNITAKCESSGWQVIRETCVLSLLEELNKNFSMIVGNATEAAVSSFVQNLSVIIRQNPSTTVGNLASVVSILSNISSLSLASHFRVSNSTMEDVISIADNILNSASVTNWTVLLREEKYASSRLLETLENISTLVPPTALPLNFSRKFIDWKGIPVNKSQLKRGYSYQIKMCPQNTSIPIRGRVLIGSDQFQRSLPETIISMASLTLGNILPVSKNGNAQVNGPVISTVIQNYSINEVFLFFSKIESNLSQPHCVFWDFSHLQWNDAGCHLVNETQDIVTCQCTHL
# T1 sequence (Q5T601 567-910): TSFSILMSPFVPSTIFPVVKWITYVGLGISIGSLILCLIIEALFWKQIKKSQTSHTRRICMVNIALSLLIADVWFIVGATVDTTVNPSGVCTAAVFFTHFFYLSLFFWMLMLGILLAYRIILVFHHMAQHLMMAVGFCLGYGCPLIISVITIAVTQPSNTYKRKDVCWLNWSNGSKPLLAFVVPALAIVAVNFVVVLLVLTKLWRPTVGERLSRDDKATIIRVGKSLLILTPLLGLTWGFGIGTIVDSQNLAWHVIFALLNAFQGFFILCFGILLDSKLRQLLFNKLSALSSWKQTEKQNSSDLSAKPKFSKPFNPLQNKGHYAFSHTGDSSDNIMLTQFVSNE
# From the text: microscale thermophoresis on hGPR110-HA (human GPR110, ADGRF1) | immunopurified hGPR110 and bodipy-synaptamide, a fluorescent synaptamide analogue, indicated apparent Kd
# [2] = target: T2, mGPR110-HA (mouse GPR110) (Mus musculus, UniProt Q8VEC3); assay: streptavidin pull-down and western blot; type: binding; conditions: 1 μM G1, HEK293 lysate, PBS with 0.5% Triton X-100
# T2 construct: gene Adgrf1; full-length ORF, C-terminal HA tag kept, expressed in HEK293; about 100 kD main band
# T2 sequence (Q8VEC3 21-564): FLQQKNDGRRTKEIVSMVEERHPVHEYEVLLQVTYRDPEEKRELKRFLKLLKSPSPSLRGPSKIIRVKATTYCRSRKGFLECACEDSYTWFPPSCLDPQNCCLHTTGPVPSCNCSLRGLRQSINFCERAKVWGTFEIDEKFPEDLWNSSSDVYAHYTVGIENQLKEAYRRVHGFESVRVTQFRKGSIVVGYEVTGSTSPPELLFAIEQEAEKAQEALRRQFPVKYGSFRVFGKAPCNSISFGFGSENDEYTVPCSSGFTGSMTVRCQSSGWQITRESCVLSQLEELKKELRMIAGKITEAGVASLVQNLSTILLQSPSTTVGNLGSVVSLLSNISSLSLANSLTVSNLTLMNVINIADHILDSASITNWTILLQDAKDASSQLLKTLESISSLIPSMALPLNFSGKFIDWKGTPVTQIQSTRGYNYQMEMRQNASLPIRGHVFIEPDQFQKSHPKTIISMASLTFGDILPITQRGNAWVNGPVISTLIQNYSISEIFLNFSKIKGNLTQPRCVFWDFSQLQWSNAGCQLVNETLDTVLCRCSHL
# T2 sequence (Q8VEC3 565-908): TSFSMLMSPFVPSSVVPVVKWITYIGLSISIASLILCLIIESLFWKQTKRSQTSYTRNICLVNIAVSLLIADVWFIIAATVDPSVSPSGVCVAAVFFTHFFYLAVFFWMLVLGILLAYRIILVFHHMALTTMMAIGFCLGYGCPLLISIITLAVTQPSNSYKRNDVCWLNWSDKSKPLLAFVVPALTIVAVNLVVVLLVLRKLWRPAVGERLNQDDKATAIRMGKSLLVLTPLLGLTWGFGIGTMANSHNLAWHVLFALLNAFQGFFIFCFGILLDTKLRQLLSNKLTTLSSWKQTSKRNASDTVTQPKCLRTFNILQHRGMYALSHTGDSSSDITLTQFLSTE
# [3] = target: T1, hGPR110-HA (human GPR110, ADGRF1); assay: streptavidin pull-down and western blot; type: binding; conditions: 1 μM G1, HEK293 lysate
# [4] = target: T2, mGPR110-HA (mouse GPR110); assay: in-cell cross-linking (DSS), streptavidin pull-down, western blot; type: cell-based; conditions: 1 μM G1*, live HEK293 cells, 25 °C; cross-linked by 1 mM DSS
compound,measurement,setting,value
"CC/C=C\C/C=C\C/C=C\C/C=C\C/C=C\C/C=C\CCC(=O)NCCNC(=O)CCCCC1=C2C(C)=CC(C)=[N+]2[B-](F)(F)n2c(C)cc(C)c21 [bodipy-synaptamide, 10-(5-((2-((4Z,7Z,10Z,13Z,16Z,19Z)-docosa-4,7,10,13,16,19-hexaenamido)ethyl)amino)-5-oxopentyl)-5,5-difluoro-1,3,7,9-tetramethyl-5H-dipyrrolo(1,2-c:2',1'-f)(1,3,2)diazaborinin-4-ium-5-uide]",Kd,[1],~20 nM
"CC/C=C\C/C=C\C/C=C\C/C=C\C/C=C\C/C=C\CCC(=O)NCCNC(=O)CCCC[C@@H]1SC[C@@H]2NC(=O)N[C@@H]21 [G1, (4Z,7Z,10Z,13Z,16Z,19Z)-N-(2-(5-((3aS,4S,6aR)-2-oxohexahydro-1H-thieno(3,4-d)imidazol-4-yl)pentanamido)ethyl)docosa-4,7,10,13,16,19-hexaenamide]",streptavidin pull-down and western blot,[2],confirming binding of G1 to the expressed mGPR110-HA
same,streptavidin pull-down and western blot,[3],hGPR110 showed G1 binding which was displaced by synaptamide
"CC/C=C\C/C=C\C/C=C\C/C=C\C/C=C\C/C=C\CCC(=O)NCCCC(CCCN)NC(=O)CCCC[C@@H]1SC[C@@H]2NC(=O)N[C@@H]21 (stereo partly drawn) [G1*, (4Z,7Z,10Z,13Z,16Z,19Z)-N-(7-amino-4-(5-((3aS,4S,6aR)-2-oxohexahydro-1H-thieno(3,4-d)imidazol-4-yl)pentanamido)heptyl)docosa-4,7,10,13,16,19-hexaenamide]","in-cell cross-linking (DSS), streptavidin pull-down, western blot",[4],confirming G1* binding to GPR110-HA in live HEK cells
